Converted amounts (≈) assume the structure as drawn. Counter-ions that a name gives are not always drawn. Like-named read-outs stand apart in the source and are kept apart here.
Legend:
Assay type in all cases: cell-based
[1] = system: Eshcerichia coli GN 206; test: Minimum Growth Inhibitory Concentration (MIC), Escherichia coli GN 206; conditions: GN206, Table 2, bacterium 4: Eshcerichia coli GN 206, read-out: Minimum Growth Inhibitory Concentration (MIC)
Text: (§1) Minimum Growth Inhibitory Concentration (MIC) mcg/ml
4. Eshcerichia coli GN 206

[2] = system: Proteus vulgaris GN 76; test: Minimum Growth Inhibitory Concentration (MIC), Proteus vulgaris GN 76; conditions: GN76; Table 2, bacterium 8: Proteus vulgaris GN 76; read-out: Minimum Growth Inhibitory Concentration (MIC)
Text: as §1
10. Proteus vulgaris GN 76
as §1
8. Proteus vulgaris GN 76

[3] = system: Staphylococcus aureus 209PJC1; test: Minimum Growth Inhibitory Concentration (MIC), Staphylococcus aureus 209PJC1; conditions: Table 2, bacterium 2: Staphylococcus aureus 209 PJC1; read-out: Minimum Growth Inhibitory Concentration (MIC)
Text: as §1
1. Staphylococcus aureus 209PJC1
as §1
2. Staphylococcus aureus 209 PJC1

[4] = system: Escherichia coli NIHJ JC2; test: Minimum Growth Inhibitory Concentration (MIC), Escherichia coli NIHJ JC2; conditions: NIHJJC2; Table 2, bacterium 3: Escherichia coli NIHJ JC2; read-out: Minimum Growth Inhibitory Concentration (MIC)
Text: as §1
3. Escherichia coli NIHJ JC2

[5] = system: Proteus mirabilis GN 79; test: Minimum Growth Inhibitory Concentration (MIC), Proteus mirabilis GN 79; conditions: GN79; Table 2, bacterium 6: Proteus mirabilis GN 79; read-out: Minimum Growth Inhibitory Concentration (MIC)
Text: as §1
6. Proteus mirabilis GN 79

[6] = system: Staphylococcus aureus Smith; test: Minimum Growth Inhibitory Concentration (MIC), Staphylococcus aureus Smith; conditions: Table 2, bacterium 1: Staphylococcus aureus Smith; read-out: Minimum Growth Inhibitory Concentration (MIC)
Text: as §1
1. Staphylococcus aureus Smith

[7] = system: Salmonella typhimurium LT2; test: Minimum Growth Inhibitory Concentration (MIC), Salmonella typhimurium LT2; conditions: Salmonella enterica, read-out: Minimum Growth Inhibitory Concentration (MIC)
Text: as §1
7. Salmonella typhimurium LT2

[8] = system: Proteus rettgeri GN624; test: Minimum Growth Inhibitory Concentration (MIC), Proteus rettgeri GN624; conditions: Providencia rettgeri; Table 2, bacterium 9: Proteus rettgeri GN624; read-out: Minimum Growth Inhibitory Concentration (MIC)
Text: as §1
9. Proteus rettgeri GN624

[9] = system: Serratia marcescens No. 2; test: Minimum Growth Inhibitory Concentration (MIC), Serratia marcescens No. 2; conditions: Table 2, bacterium 10: Serratia marcescens No. 2; read-out: Minimum Growth Inhibitory Concentration (MIC)
Text: as §1
10. Serratia marcescens No. 2

[10] = system: Klebsiella pneumoniae PCI 602; test: Minimum Growth Inhibitory Concentration (MIC), Klebsiella pneumoniae PCI 602; conditions: PCI602; Table 2, bacterium 5: Klebsiella pneumoniae PCI 602; read-out: Minimum Growth Inhibitory Concentration (MIC)
Text: as §1
5. Klebsiella pneumoniae PCI 602

[11] = system: Serratia marcescens No. 1; test: Minimum Growth Inhibitory Concentration (MIC), Serratia marcescens No. 1; conditions: Table 2, bacterium 11: Serratia marcescens No. 1
Text: as §1
11. Serratia marcescens No. 1

[12] = Table 2, bacterium 7: Salmonella typhimurium LT2

SMILES: CCO/N=C(\C(=O)N[C@@H]1C(=O)N2C(C(=O)[O-])=C(CSc3cccc[n+]3CC(=O)O)CS[C@H]12)c1csc(N)n1 [Example 33, sodium salt]
- MIC [1]: 0.78 mg/L
- MIC [2]: 0.39 mg/L
- MIC [3]: 0.78 mg/L
- MIC [4]: 0.05 mg/L
- MIC [5]: 0.39 mg/L
- MIC [6]: 1.56 mg/L
- MIC [7, 12]: 0.05 mg/L
- MIC [8]: 6.25 mg/L
- MIC [9]: 0.1 mg/L
- MIC [10]: 0.05 mg/L

SMILES: CO/N=C(\C(=O)N[C@@H]1C(=O)N2C(C(=O)[O-])=C(CSc3cc[n+](CC(F)(F)F)cc3)CS[C@H]12)c1csc(N)n1 [Example 80, (6R,7R)-7-[(Z)-2-(2-Aminothiazol-4-yl)-2-methoxyiminoacetamido]-3-[1-(2,2,2-trifluoroethylpyridinium-4-yl)thiomethyl]-ceph-3-em-4-carboxylate]
- MIC [1]: 0.05 mg/L (≈ 0.0849 µM)
- MIC [2]: 0.78 mg/L (≈ 1.33 µM)
- MIC [3]: 0.2 mg/L (≈ 0.34 µM)
- MIC [4]: 0.2 mg/L (≈ 0.34 µM)
- MIC [5]: 1.56 mg/L (≈ 2.65 µM)
- MIC [6]: 0.2 mg/L (≈ 0.34 µM)
- MIC [7, 12]: 0.2 mg/L (≈ 0.34 µM)
- MIC [11]: 0.2 mg/L (≈ 0.34 µM)
- MIC [8]: 0.2 mg/L (≈ 0.34 µM)
- MIC [10]: 0.2 mg/L (≈ 0.34 µM)

SMILES: CCO/N=C(\C(=O)N[C@@H]1C(=O)N2C(C(=O)[O-])=C(CSc3cc[n+](CC(F)(F)F)cc3)CS[C@H]12)c1csc(N)n1 [Example 81, (6R,7R)-7-[(Z)-2-(2-Aminothiazol-4-yl)-2-ethoxyiminoacetamido]-3-[1-(2,2,2-trifluoroethylpyridinium-4-yl)thiomethyl]-ceph-3-em-4-carboxylate]
- MIC [1]: ≤ 0.025 mg/L
- MIC [2]: 0.39 mg/L (≈ 0.647 µM)
- MIC [3]: 0.39 mg/L (≈ 0.647 µM)
- MIC [4]: 0.05 mg/L (≈ 0.083 µM)
- MIC [5]: 0.78 mg/L (≈ 1.29 µM)
- MIC [6]: 0.39 mg/L (≈ 0.647 µM)
- MIC [7, 12]: 0.05 mg/L (≈ 0.083 µM)
- MIC [11]: 0.05 mg/L (≈ 0.083 µM)
- MIC [8]: 0.1 mg/L (≈ 0.166 µM)
- MIC [10]: 0.1 mg/L (≈ 0.166 µM)

SMILES: Nc1nc(/C(=N/OCC(=O)O)C(=O)N[C@@H]2C(=O)N3C(C(=O)[O-])=C(CSc4cc[n+](CC(F)(F)F)cc4)CS[C@H]23)cs1 [Example 82, (6R,7R)-7-[(Z)-2-(2-Aminothiazol-4-yl)-2-(carboxymethoxyimino)acetamido]-3-[1-(2,2,2-trifluoroethylpyridinium-4-yl)thiomethyl]-ceph-3-em-4-carboxylic acid sodium salt]
- MIC [1]: 0.05 mg/L
- MIC [2]: 0.05 mg/L
- MIC [3]: 3.13 mg/L
- MIC [4]: 0.05 mg/L
- MIC [5]: 0.05 mg/L
- MIC [6]: 3.13 mg/L
- MIC ([7]; TYPHIMURIUM): < 0.025 mg/L
- MIC [11]: < 0.025 mg/L
- MIC [8]: < 0.025 mg/L
- MIC [10]: ≤ 0.025 mg/L

SMILES: CC(C)(O/N=C(\C(=O)N[C@@H]1C(=O)N2C(C(=O)[O-])=C(CSc3cc[n+](CC(F)(F)F)cc3)CS[C@H]12)c1csc(N)n1)C(=O)O [Example 83, (6R,7R)-7-[(Z)-2-(2-Aminothiazol-4-yl)-2-(carboxyprop-2-oxyimino)acetamido]-3-[1-(2,2,2-trifluoroethylpyridinium-4-yl)thiomethyl]-ceph-3-em-4-carboxylic acid sodium salt]
- MIC [1]: 0.2 mg/L
- MIC [2]: 0.2 mg/L
- MIC [3]: 3.13 mg/L
- MIC [4]: 0.2 mg/L
- MIC [5]: 0.39 mg/L
- MIC [6]: 6.25 mg/L
- MIC [7, 12]: 0.05 mg/L
- MIC [11]: 0.05 mg/L
- MIC [8]: 0.2 mg/L
- MIC [10]: 0.2 mg/L

SMILES: CO/N=C(\C(=O)N[C@@H]1C(=O)N2C(C(=O)[O-])=C(CSc3cc[n+](CCF)cc3)CS[C@H]12)c1csc(N)n1 [Example 84, (6R,7R)-7-[(Z)-2-(2-Aminothiazol-4-yl)-2-methoxyiminoacetamido]-3-[1-(2-fluoroethylpyridinium-4-yl)thiomethyl]-ceph-3-em-4-carboxylate]
- MIC [1]: < 0.025 mg/L
- MIC [2]: 0.2 mg/L (≈ 0.362 µM)
- MIC [3]: 0.2 mg/L (≈ 0.362 µM)
- MIC [4]: 0.05 mg/L (≈ 0.0905 µM)
- MIC [5]: 0.39 mg/L (≈ 0.706 µM)
- MIC [6]: 0.2 mg/L (≈ 0.362 µM)
- MIC [7, 12]: 0.05 mg/L (≈ 0.0905 µM)
- MIC [11]: 0.025 mg/L (≈ 0.0452 µM)
- MIC [8]: 0.1 mg/L (≈ 0.181 µM)
- MIC [10]: 0.1 mg/L (≈ 0.181 µM)
